According to US11318113B2, “Compounds for the treatment of diseases linked to mitochondrial reactive oxygen species (ROS) production” (OP2 DRUGS, priority 2015, dated 2022):
Converted amounts (≈) assume the structure as drawn.

Assays:
[1] = tested on: site IQ of complex I of the mitochondrial respiratory chain; experiment: Mitochondrial ROS/H2O2 production (Amplex Red/HRP), no complex inhibitor, ATR only; assay type: biochemical, rat; details: glutamate+malate+succinate, ATR (state 4); AOL 5 to 80 μM
Description: Rates of ROS/H2O2 production from heart mitochondria were assessed through the oxidation of the colorless, non-fluorescent indicator Amplex Red in the presence of exogenous horseradish peroxidase (HRP, EC 1.11.1.7, Sigma). H2O2 reacts with Amplex Red in a 1:1 stoichiometry, yielding the fluorescent compound resorufin (excitation: 560 nm; emission: 585 nm) which is stable once formed. Fluorescence was measured continuously with a spectro-fluorometer equipped with temperature control and stirring (SAFAS Xenius, Monaco). Isolated mitochondria (0.1 mg/mL) were incubated in the same experimental buffer than previously, supplemented with 15 μM Amplex Red and 10 μg/mL HRP. Glutamate (5 mM)/malate (2.5 mM) together with succinate (5 mM) were used as complex I and complex II substrates, respectively. Experiments were conducted under non-phosphorylating conditions in the presence of 15 μM atractyloside, i.e. under state IV conditions where mitochondrial membrane […]. […]
FIG. 3 illustrates the effect of the presence of increasing concentrations of AOL (from 5 to 80 μM) on ROS/H2O2 production measured under the different conditions defined in FIG. 2. […]

[2] = tested on: isolated perfused rat heart; experiment: Global ischaemia/reperfusion of isolated perfused (Langendorff) rat heart; details: 10 μM AOL pretreatment, 30 min ischaemia
Description: The consequences of 30 minutes' global ischaemia followed by 120 minutes' reperfusion (FIG. 11) on contractility and tissue viability were studied on isolated perfused rat heart pretreated or not (control vehicle) with 10 μM AOL.
All procedures conformed to the UK Animals (Scientific Procedures) Act 1986 and the Guide for the Care and Use of Laboratory Animals published by the National Institutes of Health (NIH Publication No. 85-23. revised 1996). Male Wistar rats (250-300 g) were anesthetized by 3% isoflurane, heparinized and euthanized by a lethal IP injection of pentobarbital (130 mg/kg). Hearts (˜0.95 g of fresh weight) were rapidly harvested and placed into ice cold Krebs-Henseleit buffer containing (in mmol/L): NaCl 118, NaHCO3 25, KCl 4.8, KH2PO4 1.2, MgSO4 1.2, glucose 11 and CaCl2 1.8; gassed with 95% O2/5% CO2 at 37° C. (pH 7.4). Langendorff heart perfusions were performed (Garlid, K. D. et al., 2006. Am. J. Physiol. Heart Circ. Physiol. 291(1):H152-60) and contractility was assessed by continuous measurement of the rate pressure product (RPP) thanks to a balloon placed in the left ventricle and connected to a pressure transducer. Hearts were perfused in a constant flow mode (12 mL/min). […]

[3] = Solubility limit in Kolliphor; assay type: physicochemical

COc1ccc(-c2cc(=S)ss2)cc1 [AOL, 5-(4-methoxyphenyl)-3H-1,2-dithiole-3-thione]
decrease of ROS/H2O2 production measured in the absence of inhibitor [1]: approximately 80% | infarcted tissue rescued (TTC staining) ([2]; 120 min reperfusion): about 50% | heart contractility (rate pressure product, RPP) versus control hearts ([2]; after 2 hours of reperfusion): about three times higher | solubility limit [3]: 2800 µM (≈ 673 µg/mL)
